Source: the supplement of paper PMC11208160

test: recombinant UMI read abundance after kanamycin selection (control-corrected) (log10(CPM+1)); higher = more efficient recombination; extreme values may be limits of the assay; sequences stand for … in AGTGCAGAGAAAATCGGCCAGTTTTCTCTGCCTGCAGTCCGCATGCCGTGGGACCCCTTGGGTTCTAACCTGTTGCCTAGATTTATGCAGCGGACTGCCTTTCTCCCAAAGTGATAAACCGG…AGGTTGGTTTCACT; site = the 11-nt donor
Summary of the method: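 After plating on IPTG (0.07 mM) plus kanamycin, or unselected, in two replicates, recombinant UMIs were PCR-amplified across the donor–target junction and sequenced. The cells were Escherichia coli co-electroporated with a UMI-tagged donor and donor-binding-loop pair library and a target plasmid with a fixed target and T7-inducible IS621 bridge recombinase. Values are log10(CPM+1), with CPM averaged over replicates and scaled by control-derived factors.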
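Further: IS621 bridge recombinase in Escherichia coli cells against a fixed T5 target plasmid.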

| Sequence | recombinant UMI read abundance (log10) |
| --- | --- |
| ACGAAAACATGGACCGGTTTTCCCGGTAATCCGTATTTGCT (site CCGAAAACTAG) | 0 |
| AAATCTACATGGACCGGTTTTCCCGGTAATCCGTATTTGTG (site AGATCTACTCA) | 0.0155 |
| AGGTTTCCATGGACCGGTTTTCCCGGTAATCCGTATTTGTG (site AGGTTCCCTCA) | 0.192 |
| CGCCGTACATGGACCGGTTTTCCCGGTAATCCGTATTTGCT (site CGCCGTACTAA) | 0.0116 |
| GCGAAAACATGGACCGGTTTTCCCGGTAATCCGTATTTGCA (site GCGAAAACTAG) | 0 |
| GGGTTCCCATGGACCGGTTTTCCCGGTAATCCGTATTTGTG (site TGGTTCCCTCA) | 0.0194 |
| CCGAATGCATGGACCGGTTTTCCCGGTAATCCGTATTTGAT (site CCGAATGCTAT) | 0.919 |
| AGGATGACATGGACCGGTTTTCCCGGTAATCCGTATTTGCA (site AGGAAGACTTG) | 2.34 |
| CGGGAGTCATGGACCGGTTTTCCCGGTAATCCGTATTTGCC (site CGGGACTCTGG) | 0 |
| GCGAACCCATGGACCGGTTTTCCCGGTAATCCGTATTTGGG (site GCGAATCCTCC) | 0.0113 |
| TAATGAGCATGGACCGGTTTTCCCGGTAATCCGTATTTGAG (site TAATGAGCTCC) | 0.104 |
| CTAGTAGCATGGACCGGTTTTCCCGGTAATCCGTATTTGCC (site CTAGTAGCTGG) | 1.64 |
| TGCTCAGCATGGACCGGTTTTCCCGGTAATCCGTATTTGTT (site TGCTCAGCTAA) | 0 |
| AGGGTCCCATGGACCGGTTTTCCCGGTAATCCGTATTTGTG (site AGGGTCCCTCA) | 0.304 |
| CTCAGAACATGGACCGGTTTTCCCGGTAATCCGTATTTGCC (site CTCAGAACTGG) | 1.47 |
| CGGAATCCATGGACCGGTTTTCCCGGTAATCCGTATTTGTT (site CGTAATCCTAA) | 0.0103 |
| ATAAGGCCATGGACCGGTTTTCCCGGTAATCCGTATTTGAG (site ATAAGGCCTTT) | 0.025 |
| AGGTTCTCATGGACCGGTTTTCCCGGTAATCCGTATTTGTG (site AGGTTCTCTCA) | 2.32 |
| CAATGCTCATGGACCGGTTTTCCCGGTAATCCGTATTTGAA (site CGATGCTCTTT) | 0.0125 |

| Sequence | recombinant UMI read abundance (log10) |
| --- | --- |
| CACGTCACATGGACCGGTTTTCCCGGTAATCCGTATTTGAG (site CACGTCACTCT) | 1.36 |
| GATACGTCATGGACCGGTTTTCCCGGTAATCCGTATTTGTT (site GTTACGTCTAA) | 0.0167 |
| CGGAATCCATGGACCGGTTTTCCCGGTAATCCGTATTTGTT (site CGTAATCCTGA) | 0 |
| TGTTCCGCATGGACCGGTTTTCCCGGTAATCCGTATTTGTC (site TGTTCCGCTGA) | 1.06 |
| GGTGTTCCATGGACCGGTTTTCCCGGTAATCCGTATTTGGT (site GATGTTCCTAC) | 0.0226 |
| GGGGCACCATGGACCGGTTTTCCCGGTAATCCGTATTTGCT (site GGGGCACCTGG) | 0 |
| GCGAAGCCATGGACCGGTTTTCCCGGTAATCCGTATTTGGA (site GCGAAGCCTTC) | 0.24 |
| GAATGGCCATGGACCGGTTTTCCCGGTAATCCGTATTTGCA (site GAATGGACTTG) | 0.018 |
| GGCAATCCATGGACCGGTTTTCCCGGTAATCCGTATTTGAG (site GGCAATCCTAT) | 0 |
| CTGCTAACATGGACCGGTTTTCCCGGTAATCCGTATTTGGA (site CTGCTAACTTC) | 1.62 |
| CGTCTGGCATGGACCGGTTTTCCCGGTAATCCGTATTTGCT (site CGTCTGGCTAG) | 0.46 |
| GTATCCACATGGACCGGTTTTCCCGGTAATCCGTATTTGTA (site GTATCCACTTA) | 1.94 |
| CCGATAGCATGGACCGGTTTTCCCGGTAATCCGTATTTGTG (site CCGCTAGCTCA) | 0.0063 |
| ATTGAGACATGGACCGGTTTTCCCGGTAATCCGTATTTGCT (site ATTGAGACTAT) | 0.827 |
| CTACTACCATGGACCGGTTTTCCCGGTAATCCGTATTTGCT (site CTCCTACCTAG) | 0.00711 |
| AATGATGCATGGACCGGTTTTCCCGGTAATCCGTATTTGGA (site AATCATGCTTC) | 1.01 |
| ACCTACACATGGACCGGTTTTCCCGGTAATCCGTATTTGGG (site ACCTAAACTCC) | 0.00329 |
| AGGAAGACATGGACCGGTTTTCCCGGTAATCCGTATTTGTG (site AGGAAGACTTG) | 0.492 |
| CGGGCACCATGGACCGGTTTTCCCGGTAATCCGTATTTGAT (site CGGGCACCTAT) | 0 |

| Sequence | recombinant UMI read abundance (log10) |
| --- | --- |
| CCTACGGCATGGACCGGTTTTCCCGGTAATCCGTATTTGCG (site CCTACGGCTCG) | 0.00682 |
| ACCTAGACATGGACCGGTTTTCCCGGTAATCCGTATTTGTG (site ACCTAGACTCA) | 0.799 |
| TAGACTTCATGGACCGGTTTTCCCGGTAATCCGTATTTGGT (site TAGGCTTCTAC) | 0.329 |
| ATACATCCATGGACCGGTTTTCCCGGTAATCCGTATTTGAC (site AGACATCCTGT) | 0 |
| GCAAGAACATGGACCGGTTTTCCCGGTAATCCGTATTTGAG (site GCAAGAACTCT) | 2.56 |
| TTATTTACATGGACCGGTTTTCCCGGTAATCCGTATTTGAA (site TTATTTACTTT) | 0.00385 |
| ACTAGATCATGGACCGGTTTTCCCGGTAATCCGTATTTGAG (site ACTAGACCTCT) | 0.0156 |
| TGGGCTACATGGACCGGTTTTCCCGGTAATCCGTATTTGCA (site TGGGCTACTTG) | 1.79 |
| CACTCCTCATGGACCGGTTTTCCCGGTAATCCGTATTTGCC (site CACTCATCTGG) | 0.425 |
| TTGGAAACATGGACCGGTTTTCCCGGTAATCCGTATTTGCA (site GTGGAAACTTG) | 0.342 |
| ACACGTCCATGGACCGGTTTTCCCGGTAATCCGTATTTGAT (site ACACGTCCTAT) | 1.56 |
| CTCAACACATGGACCGGTTTTCCCGGTAATCCGTATTTGCT (site CTCCACACTAG) | 0.438 |
| CAAGGACCATGGACCGGTTTTCCCGGTAATCCGTATTTGGG (site CTAGGACCTCC) | 0.0255 |
| GTATCCACATGGACCGGTTTTCCCGGTAATCCGTATTTGTA (site GTATTCACTTA) | 0.00595 |
| AGAATGGCATGGACCGGTTTTCCCGGTAATCCGTATTTGCT (site AGAACGGCTAG) | 1.47 |
| CGGAATCCATGGACCGGTTTTCCCGGTAATCCGTATTTGTT (site CCGAATCCTTA) | 0 |
| AACCGTCCATGGACCGGTTTTCCCGGTAATCCGTATTTGAC (site AACCGTCCTCT) | 0.0147 |
| GGATACACATGGACCGGTTTTCCCGGTAATCCGTATTTGCC (site GGATAAACTGG) | 0 |
| ACATTGACATGGACCGGTTTTCCCGGTAATCCGTATTTGCC (site ACATTGACTGG) | 2 |
